Experimental data as given in patent publication US10995359B2, “Method for determining drug-sensitive human cell lines by analysis method in which measurement of activity of two types of protein kinase is used” (NITTO BOSEKI CO., LTD., priority 2015, dated 2021).
Where two headings read alike, the source gives them in different places.

Key:
[1] = test system: DU4475 (IM) cells; assay: Drug sensitivity assay (cell growth test), sulforhodamine B; format: cell-based; conditions: Homo sapiens, DU-4475, 72 hours; for inhibition at 0.1 µM: DU4475, 100 nM, index 12.5% growth inhibition rate; for inhibition at 1 µM: DU4475, 1 μM, index 25% growth inhibition rate; for inhibition at 10 µM: DU4475, 10 μM, index 50% growth inhibition rate
Method: (§1) Cultured cells were treated with a MEK inhibitor and a PI3K inhibitor in various concentrations, and cell lines sensitive to MEK and PI3K were classified by calculating a cell growth inhibition rate. The culture method and analysis method are as follows.
(§2) Thirteen types of cells used in the present study, HCC38 (BL1), MDA-MB-231 (MSL), DU4475 (IM), HCC1187 (IM), HCC1143 (BL1), HCC1395 (LAR), HCC1937 (BL1), MDA-MB-453 (LAR), HCC70 (BL2), HS578T (MSL), MDA-MB-157 (MSL) and MDA-MB-468 (BL1), were obtained from American type culture collection (ATCC), and SUM185PE (LAR) was obtained from ASTERAND BIOSCIENCE. All the cells belong to triple negative breast cancer (TNBC), and it is known which of six types (BL1, BL2, M, MSL, IM and LAR) these belong to by an existing classification method.
(§3) All the cells were cultured in a medium designated from a source of supply, and 2 mM L-glutamine and 10% fetal bovine serum (FBS) were supplemented.
(§4) Each type of cells was seeded in a 96 well titer plate at 1×10^4 cells/well, and trametinib, an MEK inhibitor (Medchem Express; 0.08, 0.16, 0.31, 0.63, 1.25, 2.5, 5, 10 and 20 μM), and wortmannin, a PI3K inhibitor (Wako Pure Chemical Industries, Ltd.; 0.08, 0.16, 0.31, 0.63, 1.25, 2.5, 5, 10 and 20 μM) were dissolved in Dimethyl Sulfoxide [DMSO] (Wako Pure Chemical Industries, Ltd.) in various concentrations and treated. In addition, the effect on cell growth was examined at 72 hours after the inhibitor by sulforhodamine B assay (manufactured by SIGMA-ALDRICH), and 50 μL of sulforhodamine B solution was added to each well and cells were left at room temperature for an hour for staining. The staining degree of metabolically survival cells was examined by monitoring absorbance at a wavelength of 565 nm using a microtiter plate. The absorbance of cells which were not treated with trametinib and wortmannin (treated with DMSO) was used as a control and defined as 100% to calculate a cell growth inhibition rate.
(§5) The cell lines were classified into 4 types, cell lines sensitive to wortmannin (hereinafter, PA), cell lines sensitive to trametinib (hereinafter, MA), cell lines resistant to wortmannin and trametinib (hereinafter, R), and others (hereinafter, S). In the classification, first the inhibition rate of each drug was calculated in a concentration of 1 μM, and the inhibition rate (%) by trametinib and the inhibition rate (%) by wortmannin were plotted on the X axis and Y axis respectively on a graph.
as §5, with “100 nM,” for “1 μM,”
as §5, with “10” for “1”, “graph. Using a 50% growth inhibition rate as an index of the inhibitive effect of a drug, cells were classified into 4 types by grid analysis.” for “graph.”

[2] = test system: HCC1143 (BL1) cells; assay: as above; format: cell-based; conditions: Homo sapiens, 72 hours; for inhibition at 0.1 µM: HCC1143, 100 nM, index 12.5% growth inhibition rate; for inhibition at 1 µM: HCC1143, 1 μM, index 25% growth inhibition rate; for inhibition at 10 µM: HCC1143, 10 μM, index 50% growth inhibition rate
Method: as §1, §2, §3, §4, §5
as §5, with “100 nM,” for “1 μM,”
as §5, with “10” for “1”, “graph. Using a 50% growth inhibition rate as an index of the inhibitive effect of a drug, cells were classified into 4 types by grid analysis.” for “graph.”

[3] = test system: MDA-MB-157 (MSL) cells; assay: as above; format: cell-based; conditions: Homo sapiens, 72 hours; for inhibition at 0.1 µM: MDA-MB-157, 100 nM, index 12.5% growth inhibition rate; for inhibition at 1 µM: MDA-MB-157, 1 μM, index 25% growth inhibition rate; for inhibition at 10 µM: MDA-MB-157, 10 μM, index 50% growth inhibition rate
Method: as §1, §2, §3, §4, §5
as §5, with “100 nM,” for “1 μM,”
as §5, with “10” for “1”, “graph. Using a 50% growth inhibition rate as an index of the inhibitive effect of a drug, cells were classified into 4 types by grid analysis.” for “graph.”

[4] = test system: MDA-MB-231 (MSL) cells; assay: as above; format: cell-based; conditions: Homo sapiens, 72 hours; for inhibition at 0.1 µM: MDA-MB-231, 100 nM, index 12.5% growth inhibition rate; for inhibition at 1 µM: MDA-MB-231, 1 μM, index 25% growth inhibition rate; for inhibition at 10 µM: MDA-MB-231, 10 μM, index 50% growth inhibition rate
Method: as §1, §2, §3, §4, §5
as §5, with “100 nM,” for “1 μM,”
as §5, with “10” for “1”, “graph. Using a 50% growth inhibition rate as an index of the inhibitive effect of a drug, cells were classified into 4 types by grid analysis.” for “graph.”

[5] = test system: HCC70 derived tumor; assay: Test of suppressing tumor growth by drug administration using tumor-bearing mice; format: in vivo, nude mice; conditions: 0.3 mg/kg orally once-daily for 14 days
Method: (§6) A cultured triple negative breast cancer cell line was injected under the skin of nude mice to create cancer-bearing mice, and a tumor tissue was established and a PI3K inhibitor and an MEK inhibitor were then administered. Tumor volumes were measured to observe an anti-tumor effect. The method for preparing a tumor-bearing mice and the administration route are as follows.
(§7) The cell lines of MDA-MB-231, HCC70 and SUM185PE were cultured by the above-described method, and after release with trypsin, the cells was suspended with Matrigel basement membrane matrix (manufactured by Corning Incorporated) to about 7×10^6 cells/mL to prepare a cell suspension. Using a 27 gauge syringe, 0.1 mL of cell suspension was injected under the skin of 5-week old female nude mice (manufactured by CLEA Japan, Inc.) to prepare tumor-bearing mice.
(§8) Trametinib, an MEK inhibitor, and wortmannin, a PI3K inhibitor, were each dissolved in PBS with 1% dimethylsulfoxide (DMSO) to 0.3 mg/kg to obtain a drug solution. In addition, PBS with 1% DMSO was used as a control.
(§9) Individuals whose tumor volume reached 300 mm^3 were randomly divided into 3 groups and administration was initiated. As an administration route, a drug solution was orally administered once-daily for 14 days and the tumor volume was observed. The tumor volume was calculated by major axis×(minor axis)^2/2.
(§10) FIGS. 33 to 35 show the results of the test of suppressing tumor growth by each inhibitor using the number of individuals N=6 in each group (Control group, Trametinib-administered group and Wortmannin-administered group) (FIG. 33: MDA-MB-231 derived tumor-bearing mice, FIG. 34: HCC70 derived tumor-bearing mice, and FIG. 35: SUM185PE derived tumor-bearing mice). […] Mann-Whitney U test was used as the test method.

[6] = test system: MDA-MB-231 derived tumor; assay: as above; format: in vivo, nude mice; conditions: MDA-MB-231 derived tumor-bearing mice; 0.3 mg/kg orally once-daily for 14 days
Method: as §6, §7, §8, §9, §10

[7] = test system: SUM185PE derived tumor; assay: as above; format: in vivo, nude mice; conditions: 0.3 mg/kg orally once-daily for 14 days
Method: as §6, §7, §8, §9, §10

[8] = read-out: inhibition rate (%) by trametinib, classification by grid analysis
[9] = read-out: inhibition rate (%) by wortmannin, classification by grid analysis

CC(=O)Nc1cccc(-n2c(=O)n(C3CC3)c(=O)c3c(Nc4ccc(I)cc4F)n(C)c(=O)c(C)c32)c1 [trametinib]
inhibition at 0.1 µM [1, 8]: > 12.5%
inhibition at 1 µM [1, 8]: > 25%
inhibition at 10 µM [1, 8]: > 50%
inhibition at 0.1 µM [2, 8]: > 12.5%
inhibition at 1 µM [2, 8]: > 25%
inhibition at 10 µM [2, 8]: > 50%
inhibition at 0.1 µM [3, 8]: < 12.5%
inhibition at 1 µM [3, 8]: < 25%
inhibition at 10 µM [3, 8]: < 50%
inhibition at 0.1 µM [4, 8]: > 12.5%
inhibition at 1 µM [4, 8]: > 25%
inhibition at 10 µM [4, 8]: > 50%
suppression of tumor growth (in words) [5]: a significant growth suppressive effect was observed
suppression of tumor growth (in words) [6]: significantly suppressed
suppression of tumor growth (in words) [7]: a significant growth suppressive effect was not obtained

COC[C@H]1OC(=O)c2coc3c2[C@@]1(C)C1=C(C3=O)[C@@H]2CCC(=O)[C@@]2(C)C[C@H]1OC(C)=O [wortmannin, Wortmannin]
inhibition at 0.1 µM [1, 9]: < 12.5%
inhibition at 1 µM [1, 9]: < 25%
inhibition at 10 µM [1, 9]: < 50%
inhibition at 0.1 µM [2, 9]: < 12.5%
inhibition at 1 µM [2, 9]: < 25%
inhibition at 10 µM [2, 9]: < 50%
inhibition at 0.1 µM [3, 9]: < 12.5%
inhibition at 1 µM [3, 9]: < 25%
inhibition at 10 µM [3, 9]: < 50%
inhibition at 0.1 µM [4, 9]: < 12.5%
inhibition at 1 µM [4, 9]: < 25%
inhibition at 10 µM [4, 9]: < 50%
suppression of tumor growth (in words) [5]: a significant growth suppressive effect was observed
suppression of tumor growth (in words) [6]: a significant suppressive effect was not obtained
suppression of tumor growth (in words) [7]: significantly suppressed
